# In PubChem BioAssay AID1963967 (Molecular Pharmacology Branch, DTP, NCI, 2024):
# System: 855422-203-R-J1-PDC spheroids with HUVEC/MSC, viability
# Assay: Anticancer human tumor 855422-203-R-J1-PDC patient-derived bladder carcinoma cell line growth inhibition [PI3K]
# Details: for viability, T/C: stronger effect = lower value
# In short: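 Spheroid viability read-out. Co-cultures contained the tumor line plus HUVEC and human MSCs. Each agent was paired with a PI3K inhibitor (inavolisib, alpelisib, duvelisib, copanlisib) across half-log dilutions starting at clinical Cmax, or at 10 microM when Cmax was unknown.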
# [1] = curve of first compound, second compound 0.00316 µM
# [2] = curve of first compound, second compound 0.01 µM
# [3] = curve of first compound, second compound 0.0316 µM
# [4] = curve of first compound, second compound 0.1 µM
# [5] = curve of first compound, second compound 0.316 µM
# [6] = curve of first compound, second compound 1 µM
# [7] = second compound 0.00316 µM, first compound 0.0316 µM
# [8] = second compound 0.00316 µM, first compound 0.1 µM
# [9] = second compound 0.00316 µM, first compound 0.316 µM
# [10] = second compound 0.00316 µM, first compound 1 µM
# [11] = second compound 0.00316 µM, first compound 3.16 µM
# [12] = second compound 0.00316 µM, first compound 10 µM
# [13] = second compound 0.01 µM, first compound 0.0316 µM
# [14] = second compound 0.01 µM, first compound 0.1 µM
# [15] = second compound 0.01 µM, first compound 0.316 µM
# [16] = second compound 0.01 µM, first compound 1 µM
# [17] = second compound 0.01 µM, first compound 3.16 µM
# [18] = second compound 0.01 µM, first compound 10 µM
# [19] = second compound 0.0316 µM, first compound 0.0316 µM
# [20] = second compound 0.0316 µM, first compound 0.1 µM
# [21] = second compound 0.0316 µM, first compound 0.316 µM
# [22] = second compound 0.0316 µM, first compound 1 µM
# [23] = second compound 0.0316 µM, first compound 3.16 µM
# [24] = second compound 0.0316 µM, first compound 10 µM
# [25] = second compound 0.1 µM, first compound 0.0316 µM
# [26] = second compound 0.1 µM, first compound 0.1 µM
# [27] = second compound 0.1 µM, first compound 0.316 µM
# [28] = second compound 0.1 µM, first compound 1 µM
# [29] = second compound 0.1 µM, first compound 3.16 µM
# [30] = second compound 0.1 µM, first compound 10 µM
# [31] = second compound 0.316 µM, first compound 0.0316 µM
# [32] = second compound 0.316 µM, first compound 0.1 µM
# [33] = second compound 0.316 µM, first compound 0.316 µM
# [34] = second compound 0.316 µM, first compound 1 µM
# [35] = second compound 0.316 µM, first compound 3.16 µM
# [36] = second compound 0.316 µM, first compound 10 µM
# [37] = second compound 1 µM, first compound 0.0316 µM
# [38] = second compound 1 µM, first compound 0.1 µM
# [39] = second compound 1 µM, first compound 0.316 µM
# [40] = second compound 1 µM, first compound 1 µM
# [41] = second compound 1 µM, first compound 3.16 µM
# [42] = second compound 1 µM, first compound 10 µM
# [43] = curve of first compound, second compound 3.16 µM
# [44] = curve of first compound, second compound 10 µM
# [45] = second compound 3.16 µM, first compound 0.0316 µM
# [46] = second compound 3.16 µM, first compound 0.1 µM
# [47] = second compound 3.16 µM, first compound 0.316 µM
# [48] = second compound 3.16 µM, first compound 1 µM
# [49] = second compound 3.16 µM, first compound 3.16 µM
# [50] = second compound 3.16 µM, first compound 10 µM
# [51] = second compound 10 µM, first compound 0.0316 µM
# [52] = second compound 10 µM, first compound 0.1 µM
# [53] = second compound 10 µM, first compound 0.316 µM
# [54] = second compound 10 µM, first compound 1 µM
# [55] = second compound 10 µM, first compound 3.16 µM
# [56] = second compound 10 µM, first compound 10 µM
# 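Further: agents incubated with spheroids for one week before read-out.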
# 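Wherever viability, T/C is given: 100% = DMSO vehicle-treated control wells.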
structure (smiles),measurement,setting,value
C[C@@H](NC(=O)c1ncnc(N)c1Cl)c1ncc(C(=O)Nc2cc(C(F)(F)F)c(Cl)cn2)s1 + COc1c(OCCCN2CCOCC2)ccc2c3n(c(=NC(=O)c4cnc(N)nc4)nc12)CCN3,IC50,[1],> 10 µM
same,IC50,[2],> 10 µM
same,IC50,[3],> 10 µM
same,IC50,[4],< 0.0316 µM
same,IC50,[5],< 0.0316 µM
same,IC50,[6],< 0.0316 µM
same,"viability, T/C",[7],93.8%
same,"viability, T/C",[8],91.3%
same,"viability, T/C",[9],104%
same,"viability, T/C",[10],97.4%
same,"viability, T/C",[11],109%
same,"viability, T/C",[12],113%
same,"viability, T/C",[13],80%
same,"viability, T/C",[14],85.2%
same,"viability, T/C",[15],88.5%
same,"viability, T/C",[16],89.4%
same,"viability, T/C",[17],108%
same,"viability, T/C",[18],83%
same,"viability, T/C",[19],59.4%
same,"viability, T/C",[20],69.3%
same,"viability, T/C",[21],68.8%
same,"viability, T/C",[22],61.6%
same,"viability, T/C",[23],71.3%
same,"viability, T/C",[24],36.7%
same,"viability, T/C",[25],35.9%
same,"viability, T/C",[26],38.3%
same,"viability, T/C",[27],33.7%
same,"viability, T/C",[28],35.9%
same,"viability, T/C",[29],27.8%
same,"viability, T/C",[30],16.2%
same,"viability, T/C",[31],13.4%
same,"viability, T/C",[32],12.5%
same,"viability, T/C",[33],12.5%
same,"viability, T/C",[34],13.7%
same,"viability, T/C",[35],11.2%
same,"viability, T/C",[36],5.99%
same,"viability, T/C",[37],4.22%
same,"viability, T/C",[38],7.01%
same,"viability, T/C",[39],5.73%
same,"viability, T/C",[40],4.13%
same,"viability, T/C",[41],3.47%
same,"viability, T/C",[42],1.26%
C=CC(=O)N1CCN(c2nc(=O)n(-c3c(C)ccnc3C(C)C)c3nc(-c4c(O)cccc4F)c(F)cc23)C(C)C1 (stereo not given) + Cc1nc(NC(=O)N2CCCC2C(N)=O)sc1-c1ccnc(C(C)(C)C(F)(F)F)c1,IC50,[3],> 10 µM
same,IC50,[4],> 10 µM
same,IC50,[5],> 10 µM
same,IC50,[6],> 10 µM
same,IC50,[43],< 0.0316 µM
same,IC50,[44],< 0.0316 µM
same,"viability, T/C",[19],111%
same,"viability, T/C",[20],87.8%
same,"viability, T/C",[21],119%
same,"viability, T/C",[22],104%
same,"viability, T/C",[23],109%
same,"viability, T/C",[24],128%
same,"viability, T/C",[25],108%
same,"viability, T/C",[26],86.8%
same,"viability, T/C",[27],106%
same,"viability, T/C",[28],103%
same,"viability, T/C",[29],117%
same,"viability, T/C",[30],114%
same,"viability, T/C",[31],94.7%
same,"viability, T/C",[32],87.3%
same,"viability, T/C",[33],104%
same,"viability, T/C",[34],99.5%
same,"viability, T/C",[35],117%
same,"viability, T/C",[36],109%
same,"viability, T/C",[37],75.9%
same,"viability, T/C",[38],76.1%
same,"viability, T/C",[39],82.6%
same,"viability, T/C",[40],92.5%
same,"viability, T/C",[41],101%
same,"viability, T/C",[42],97.4%
same,"viability, T/C",[45],50.6%
same,"viability, T/C",[46],50.9%
same,"viability, T/C",[47],58.5%
same,"viability, T/C",[48],64%
same,"viability, T/C",[49],80.4%
same,"viability, T/C",[50],67.9%
same,"viability, T/C",[51],26.9%
same,"viability, T/C",[52],27.1%
same,"viability, T/C",[53],31.5%
same,"viability, T/C",[54],37.2%
same,"viability, T/C",[55],41.2%
same,"viability, T/C",[56],34.2%
CC1(C)CCC(Nc2ncc(C(F)(F)F)c(-c3c[nH]c4c(P(C)(C)=O)c(C#N)ccc34)n2)CN1 (stereo not given),"viability, T/C",compound 0.0316 µM,29.6% [middle of 4 runs]
same,"viability, T/C",compound 0.1 µM,25% [middle of 4 runs]
same,"viability, T/C",compound 0.316 µM,27.7% [middle of 4 runs]
same,"viability, T/C",compound 1 µM,30.7% [middle of 4 runs]
same,"viability, T/C",compound 3.16 µM,28.9% [middle of 4 runs]
same,"viability, T/C",compound 10 µM,5.48% [middle of 4 runs]
same,IC50,curve of compound,< 0.0316 µM
CNC(=O)c1ccc(N2C(=S)N(c3ccc(C#N)c(C(F)(F)F)c3)C(=O)C2(C)C)cc1F + COc1c(OCCCN2CCOCC2)ccc2c3n(c(=NC(=O)c4cnc(N)nc4)nc12)CCN3,IC50,[1],> 10 µM
same,IC50,[2],> 10 µM
same,IC50,[3],> 10 µM
same,IC50,[4],< 0.0316 µM
same,IC50,[5],< 0.0316 µM
same,IC50,[6],< 0.0316 µM
same,"viability, T/C",[7],94.3%
same,"viability, T/C",[8],79.5%
same,"viability, T/C",[9],90.7%
same,"viability, T/C",[10],83.1%
same,"viability, T/C",[11],71.5%
same,"viability, T/C",[12],66.5%
same,"viability, T/C",[13],74%
same,"viability, T/C",[14],85.1%
same,"viability, T/C",[15],74.5%
same,"viability, T/C",[16],76.1%
same,"viability, T/C",[17],81.4%
same,"viability, T/C",[18],68.5%
same,"viability, T/C",[19],63.4%
same,"viability, T/C",[20],69.3%
same,"viability, T/C",[21],70.8%
same,"viability, T/C",[22],61.2%
same,"viability, T/C",[23],62.4%
same,"viability, T/C",[24],58.2%
same,"viability, T/C",[25],30.2%
same,"viability, T/C",[26],32.3%
same,"viability, T/C",[27],30.2%
same,"viability, T/C",[28],32.9%
same,"viability, T/C",[29],34.5%
same,"viability, T/C",[30],29.4%
same,"viability, T/C",[31],11.5%
same,"viability, T/C",[32],10.8%
same,"viability, T/C",[33],8.16%
same,"viability, T/C",[34],12.7%
same,"viability, T/C",[35],9.19%
same,"viability, T/C",[36],10.1%
same,"viability, T/C",[37],4.1%
same,"viability, T/C",[38],4.74%
same,"viability, T/C",[39],4.6%
same,"viability, T/C",[40],4.66%
same,"viability, T/C",[41],5.91%
same,"viability, T/C",[42],4.28%
CNC(=O)c1ccc(N2C(=S)N(c3ccc(C#N)c(C(F)(F)F)c3)C(=O)C2(C)C)cc1F + Cc1nc(NC(=O)N2CCCC2C(N)=O)sc1-c1ccnc(C(C)(C)C(F)(F)F)c1,IC50,[3],> 10 µM
same,IC50,[4],> 10 µM
same,IC50,[5],> 10 µM
same,IC50,[6],> 10 µM
same,IC50,[43],0.0316 µM
same,IC50,[44],< 0.0316 µM
same,"viability, T/C",[19],109%
same,"viability, T/C",[20],95.3%
same,"viability, T/C",[21],99.1%
same,"viability, T/C",[22],87.4%
same,"viability, T/C",[23],80.7%
same,"viability, T/C",[24],74.5%
same,"viability, T/C",[25],99.7%
same,"viability, T/C",[26],97.8%
same,"viability, T/C",[27],96.7%
same,"viability, T/C",[28],84.8%
same,"viability, T/C",[29],88.1%
same,"viability, T/C",[30],79%
same,"viability, T/C",[31],98.1%
same,"viability, T/C",[32],83.3%
same,"viability, T/C",[33],96.7%
same,"viability, T/C",[34],87.6%
same,"viability, T/C",[35],86.8%
same,"viability, T/C",[36],77.4%
same,"viability, T/C",[37],72.5%
same,"viability, T/C",[38],75.7%
same,"viability, T/C",[39],73.7%
same,"viability, T/C",[40],76.8%
same,"viability, T/C",[41],82.5%
same,"viability, T/C",[42],61.8%
same,"viability, T/C",[45],47.4%
same,"viability, T/C",[46],49.6%
same,"viability, T/C",[47],44.6%
same,"viability, T/C",[48],51.5%
same,"viability, T/C",[49],54.1%
same,"viability, T/C",[50],36.7%
same,"viability, T/C",[51],24.1%
same,"viability, T/C",[52],27.6%
same,"viability, T/C",[53],24.7%
same,"viability, T/C",[54],31.2%
same,"viability, T/C",[55],29.4%
same,"viability, T/C",[56],16.8%
